Results on 22 molecules are retold here after patent US12528786B2, “Plasma kallikrein inhibitors” (Merck Sharp & Dohme LLC, priority 2020, dated 2026).

One may read the IC50 as the concentration that gives 50% inhibition. A higher IC50 goes with weaker potency in that assay.

In the assay the target is T1, Human plasma kallikrein (Homo sapiens, UniProt P03952).
T1 construct: yields a heavy chain (371 amino acids) and a light chain (248 amino acids); purchased Enzyme Research Laboratories
T1 sequence (P03952 391-638 limits assumed): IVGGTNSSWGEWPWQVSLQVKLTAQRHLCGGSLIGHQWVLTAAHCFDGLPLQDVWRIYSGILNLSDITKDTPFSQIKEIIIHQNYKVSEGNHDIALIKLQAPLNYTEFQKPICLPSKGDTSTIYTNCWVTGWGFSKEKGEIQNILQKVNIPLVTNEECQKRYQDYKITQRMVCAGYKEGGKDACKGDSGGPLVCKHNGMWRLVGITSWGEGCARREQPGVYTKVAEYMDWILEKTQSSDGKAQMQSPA
T1 sequence (P03952 20-390 partner limits assumed): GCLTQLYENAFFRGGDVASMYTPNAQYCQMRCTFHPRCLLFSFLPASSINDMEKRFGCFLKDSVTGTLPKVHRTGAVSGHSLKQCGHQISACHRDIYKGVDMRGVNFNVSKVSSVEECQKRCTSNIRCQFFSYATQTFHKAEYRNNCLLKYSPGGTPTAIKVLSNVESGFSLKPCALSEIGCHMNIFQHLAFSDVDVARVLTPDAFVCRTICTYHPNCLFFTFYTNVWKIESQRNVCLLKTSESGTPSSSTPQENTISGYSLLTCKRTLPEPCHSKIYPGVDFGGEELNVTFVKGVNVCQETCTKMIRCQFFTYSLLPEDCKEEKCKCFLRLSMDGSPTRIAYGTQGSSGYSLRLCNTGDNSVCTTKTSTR
As to the kind of experiment: Kallikrein Assay (fluorogenic substrate hydrolysis, AFC release). The class given is biochemical. To be noted: purified Human plasma kallikrein 0.5 nM; substrate Acetyl-K—P—R-AFC 100 mM; 50 mM HEPES pH 7.4. The method in brief: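 Enzyme–inhibitor equilibrated before substrate dilution to ≤0.2 Km; human plasma kallikrein at 0.5 nM final, Acetyl-K-P-R-AFC substrate, HEPES pH 7.4 buffer with NaCl, CaCl2, PEG 8000, at room temperature or 37° C. Linear-phase fluorescence rate gives percent inhibition, four-parameter logistic IC50, then Cheng-Prusoff Ki.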
In turn, `Cc1ccc(C#N)c([C@H]2C[C@@H](NC(=O)c3cn(C(C)c4cnc(N5C[C@H]6C[C@H]6C5=O)cc4C)nn3)C2)c1` (single isomer, unassigned) [Example 67, N-((cis)-3-(2-cyano-5-methylphenyl)cyclobutyl)-1-((S or R)-1-(4-methyl-6-((1R,5S)-2-oxo-3-azabicyclo[3.1.0]hexan-3-yl)pyridin-3-yl)ethyl)-1H-1,2,3-triazole-4-carboxamide] gave an IC50 of 1.7 nM.
Under `Cc1cc(N2C[C@H]3C[C@H]3C2=O)ncc1C1(n2cc(C(=O)N[C@H]3C[C@@H](c4cc(Cl)ccc4C#N)C3)nn2)CC1` [Example 160, N-((cis)-3-(5-chloro-2-cyanophenyl)cyclobutyl)-1-(1-(4-methyl-6-((1R,5S)-2-oxo-3-azabicyclo[3.1.0]hexan-3-yl)pyridin-3-yl)cyclopropyl)-1H-1,2,3-triazole-4-carboxamide] stands 6.7 nM.
For `Cc1nc(N2C[C@H]3C[C@H]3C2=O)ccc1C(C)n1cc(C(=O)N[C@H]2C[C@@H](c3cc(Cl)ccc3C#N)C2)nn1` (single isomer, unassigned) [Example 94, N-((cis)-3-(5-chloro-2-cyanophenyl)cyclobutyl)-1-((R or S)-1-(2-methyl-6-((1R,5S)-2-oxo-3-azabicyclo[3.1.0]hexan-3-yl)pyridin-3-yl)ethyl)-1H-1,2,3-triazole-4-carboxamide], inhibition was half-maximal at 178 nM (IC50).
In the case of `COc1cc(N2C[C@H]3C[C@H]3C2=O)ncc1C(C)n1cc(C(=O)N[C@H]2C[C@@H](c3cc(Cl)ccc3C#N)C2)nn1` (single isomer, unassigned) [Example 89, N-((cis)-3-(5-chloro-2-cyanophenyl)cyclobutyl)-1-((S or R)-1-(4-methoxy-6-((1R,5S)-2-oxo-3-azabicyclo[3.1.0]hexan-3-yl)pyridin-3-yl)ethyl)-1H-1,2,3-triazole-4-carboxamide] it was 1.1 nM; in that of `COc1c(N2C[C@H]3C[C@H]3C2=O)ncc(C(C)n2cc(C(=O)N[C@H]3C[C@@H](c4cc(Cl)ccc4C#N)C3)nn2)c1C` (single isomer, unassigned) [Example 111, N-((cis)-3-(5-chloro-2-cyanophenyl)cyclobutyl)-1-((R or S)-1-(5-methoxy-4-methyl-6-((1R,5S)-2-oxo-3-azabicyclo[3.1.0]hexan-3-yl)pyridin-3-yl)ethyl)-1H-1,2,3-triazole-4-carboxamide], 0.3 nM; in that of `Cc1cc(N2C[C@H]3C[C@H]3C2=O)nnc1C(C)n1cc(C(=O)N[C@H]2C[C@@H](c3cc(Cl)ccc3C#N)C2)nn1` (single isomer, unassigned) [Example 117, N-((cis)-3-(5-chloro-2-cyanophenyl)cyclobutyl)-1-((R or S)-1-(4-methyl-6-((1R,5S)-2-oxo-3-azabicyclo[3.1.0]hexan-3-yl)pyridazin-3-yl)ethyl)-1H-1,2,3-triazole-4-carboxamide], 968 nM.
In the case of `CC(c1cnc(N2C[C@H]3C[C@H]3C2=O)c(F)c1)n1cc(C(=O)N[C@H]2C[C@@H](c3cc(Cl)ccc3C#N)C2)nn1` (single isomer, unassigned) [Example 104, N-((cis)-3-(5-chloro-2-cyanophenyl)cyclobutyl)-1-((S or R)-1-(5-fluoro-6-((1R,5S)-2-oxo-3-azabicyclo[3.1.0]hexan-3-yl)pyridin-3-yl)ethyl)-1H-1,2,3-triazole-4-carboxamide] it was 4.3 nM.
In the case of `CC(c1cnc(N2C[C@H]3C[C@H]3C2=O)c(N)c1)n1cc(C(=O)N[C@H]2C[C@@H](c3cc(Cl)ccc3C#N)C2)nn1` (single isomer, unassigned) [Example 108, 1-((S or R)-1-(5-amino-6-((1R,5S)-2-oxo-3-azabicyclo[3.1.0]hexan-3-yl)pyridin-3-yl)ethyl)-N-((cis)-3-(5-chloro-2-cyanophenyl)cyclobutyl)-1H-1,2,3-triazole-4-carboxamide] it was 6.5 nM; in that of `Cc1c([C@H](C)n2cc(C(=O)N[C@H]3C[C@@H](c4cc(Cl)ccc4C(N)=O)C3)nn2)cnc(N2C[C@H]3C[C@H]3C2=O)c1C` [Example 158], 0.9 nM.
For `Cc1cc(N2C[C@H]3C[C@H]3C2=O)ncc1Cn1cc(C(=O)N[C@H]2C[C@@H](c3cc(Cl)ccc3C#N)C2)cn1` [Example 37, N-((cis)-3-(5-chloro-2-cyanophenyl)cyclobutyl)-1-((4-methyl-6-((1R,5S)-2-oxo-3-azabicyclo[3.1.0]hexan-3-yl)pyridin-3-yl)methyl)-1H-pyrazole-4-carboxamide], the IC50 was determined as 0.7 nM.
The molecule `COc1nc(C(C)n2cc(C(=O)N[C@H]3C[C@@H](c4cc(Cl)ccc4C#N)C3)nn2)cnc1N1C[C@H]2C[C@H]2C1=O` (single isomer, unassigned) [Example 122, N-((cis)-3-(5-chloro-2-cyanophenyl)cyclobutyl)-1-((S or R)-1-(6-methoxy-5-((1R,5S)-2-oxo-3-azabicyclo[3.1.0]hexan-3-yl)pyrazin-2-yl)ethyl)-1H-1,2,3-triazole-4-carboxamide] showed an IC50 of 3 nM.
Under `Cc1cc(N2C[C@H]3C[C@H]3C2=O)ncc1C(C)n1cc(C(=O)N[C@H]2C[C@@](C)(c3cc(Cl)ccc3C#N)C2)cn1` (single isomer, unassigned) [Example 9, N-((cis)-3-(5-chloro-2-cyanophenyl)-3-methylcyclobutyl)-1-((R or S)-1-(4-methyl-6-((1R,5S)-2-oxo-3-azabicyclo[3.1.0]hexan-3-yl)pyridin-3-yl)ethyl)-1H-pyrazole-4-carboxamide] stands 0.3 nM; under `Cc1ccc(C#N)c([C@H]2C[C@@H](NC(=O)c3cn(C(C)c4cnc(N5C[C@H]6C[C@H]6C5=O)c(C)c4C)nn3)C2)c1` (single isomer, unassigned) [Example 114, N-((cis)-3-(2-cyano-5-methylphenyl)cyclobutyl)-1-((S or R)-1-(4,5-dimethyl-6-((1R,5S)-2-oxo-3-azabicyclo[3.1.0]hexan-3-yl)pyridin-3-yl)ethyl)-1H-1,2,3-triazole-4-carboxamide], 6.1 nM; under `Cc1nc(C(C)n2cc(C(=O)N[C@H]3C[C@@H](c4cc(Cl)ccc4C#N)C3)nn2)cnc1N1C[C@H]2CC2C1=O` (single isomer, unassigned) [Example 85], 0.9 nM.
In the case of `CC(c1ncc(N2C[C@H]3C[C@H]3C2=O)cc1F)n1cc(C(=O)N[C@H]2C[C@@H](c3cc(Cl)ccc3C#N)C2)nn1` (single isomer, unassigned) [Example 93, N-((cis)-3-(5-chloro-2-cyanophenyl)cyclobutyl)-1-((S or R)-1-(3-fluoro-5-((1R,5S)-2-oxo-3-azabicyclo[3.1.0]hexan-3-yl)pyridin-2-yl)ethyl)-1H-1,2,3-triazole-4-carboxamide] it was 4.3 nM.
In the case of `Cc1c(C(C)n2cc(C(=O)NC3CC(c4cccc(Cl)c4)C3O)nn2)cnc(N2C[C@H]3C[C@H]3C2=O)c1F` (single isomer, unassigned) [Example 126, N-((1S,2S,3S or 1R,2R,3R)-3-(3-chlorophenyl)-2-hydroxycyclobutyl)-1-((S or R)-1-(5-fluoro-4-methyl-6-((1R,5S)-2-oxo-3-azabicyclo[3.1.0]hexan-3-yl)pyridin-3-yl)ethyl)-1H-1,2,3-triazole-4-carboxamide] it was 414 nM.
`CC(c1cnc(N2C[C@H]3C[C@H]3C2=O)nc1)n1cc(C(=O)N[C@H]2C[C@@H](c3cc(Cl)ccc3C#N)C2)c(C#N)n1` (single isomer, unassigned) [Example 17, N-((cis)-3-(5-chloro-2-cyanophenyl)cyclobutyl)-3-cyano-1-((R or S)-1-(2-((1R,5S)-2-oxo-3-azabicyclo[3.1.0]hexan-3-yl)pyrimidin-5-yl)ethyl)-1H-pyrazole-4-carboxamide] registered a concentration for half-maximal inhibition (IC50) of 5.5 nM.
Regarding `Cc1c(C(C)n2cc(C(=O)NC3CC(c4cccc(Cl)c4)C3O)nn2)nnc(N2C[C@H]3C[C@H]3C2=O)c1C` (single isomer, unassigned) [Example 130, N-((1S,2S,3S or 1R,2R,3R))-3-(3-chlorophenyl)-2-hydroxycyclobutyl)-1-((R or S)-1-(4,5-dimethyl-6-((1R,5S)-2-oxo-3-azabicyclo[3.1.0]hexan-3-yl)pyridazin-3-yl)ethyl)-1H-1,2,3-triazole-4-carboxamide], half-maximal inhibition (IC50) was put at 8.5 nM.
In the case of `Cc1ccc(C#N)c([C@H]2C[C@@H](NC(=O)c3cn(C(C)c4cnc(N5C[C@H]6C[C@H]6C5=O)cc4C)nn3)C2)n1` (single isomer, unassigned) [Example 68, N-((cis)-3-(3-cyano-6-methylpyridin-2-yl)cyclobutyl)-1-((R or S)-1-(4-methyl-6-((1R,5S)-2-oxo-3-azabicyclo[3.1.0]hexan-3-yl)pyridin-3-yl)ethyl)-1H-1,2,3-triazole-4-carboxamide] it was 1.9 nM.
Molecule `Cc1c(N2C[C@H]3C[C@H]3C2=O)ncc(C(C)n2cc(C(=O)NC3CC(c4cc(Cl)ccc4C#N)C3)cn2)c1F` (single isomer, unassigned) [Example 166] registered an IC50 of 1.2 nM.
In the case of `Cc1ccc(C#N)c([C@H]2C[C@@H](NC(=O)c3cn(C(C)c4cnc(N5C[C@H]6C[C@H]6C5=O)c(F)c4C)nn3)C2)c1` (single isomer, unassigned) [Example 119, N-((cis)-3-(2-cyano-5-methylphenyl)cyclobutyl)-1-((R or S)-1-(5-fluoro-4-methyl-6-((1R,5S)-2-oxo-3-azabicyclo[3.1.0]hexan-3-yl)pyridin-3-yl)ethyl)-1H-1,2,3-triazole-4-carboxamide] it was 26 nM; in that of `Cc1c(C(C)n2cc(C(=O)N[C@H]3C[C@@H](c4cc(Cl)ccc4C#N)C3)cn2)cnc(N2C[C@H]3C[C@H]3C2=O)c1F` (single isomer, unassigned) [Example 28, N-((cis)-3-(5-chloro-2-cyanophenyl)cyclobutyl)-1-((R or S)-1-(5-fluoro-4-methyl-6-((1R,5S)-2-oxo-3-azabicyclo[3.1.0]hexan-3-yl)pyridin-3-yl)ethyl)-1H-pyrazole-4-carboxamide], 0.2 nM.
